Data taken from patent US8293736B2, “Purine compounds selective for PI3K P110 delta, and methods of use” (F. Hoffmann la Roche AG, priority 2010, dated 2012).
Values belong to the molecule of their own block, whether it stands above or below them.

How the values were obtained:
p110 delta = target: T1, p110 delta (Homo sapiens, UniProt O00329); assay: PI3K isoform inhibition assay (fluorescence polarization), p110 delta; assay type: biochemical; conditions: Ki apparent, Morrison equation; 25 μM ATP, 10 μM PIP2
T1 construct: purchased Upstate Group, Millipore; Dundee, UK
Description: (§1) Determination of the activity of PI3 kinase activity of Formula I compounds is possible by a number of direct and indirect detection methods.
(§2) PI3K enzymatic activity was assayed by measuring the amount of product phosphatidylinositol 3,4,5-phosphate (PIP3) formed from substrate 4,5 phosphatidylinositol 4,5-phosphate (PIP2) using a fluorescence polarization displacement assay. The decrease in fluorescence polarization of a fluorescent PIP3 probe is measured as it is displaced from a PIP3-binding protein GRP-1 detector by PI3K-catalyzed product. […] The kinase reactions were initiated by the addition of 40 ng/mL p110α/p85α, 300 ng/mL p110β/p85α, 40 ng/mL p110γ, or 40 ng/mL p110δ/p85α (Upstate Group, Millipore; Dundee, UK), and 10 μM PIP2 (Echelon Biosciences) to the wells. […] After 60 minutes of incubation at room temperature to allow equilibration of labeled and unlabeled PIP3 binding, the parallel and perpendicular components of the fluorescence emissions from each sample were measured at an excitation wavelength of 530 nm and an emission wavelength of 590 nm using an Envision fluorescent plate reader with a rhodamine filter (PerkinElmer Life and Analytical Sciences; Wellesley, Mass.). The assay is capable of detecting 0.1-2.0 μM PIP3 product. The Ki apparent values were obtained by fitting the dose-dependent inhibition data to the Morrison equation for tight-binding, competitive inhibitors. Reference: R. A. Copeland, Enzymes. “A Practical Introduction to Structure, Mechanism and Data Analysis”.
The Formula I compound was serially diluted in 100% DMSO. The kinase reaction was incubated for 1 h at room temperature, and the reaction was terminated by the addition of PBS. IC50 values were subsequently determined using sigmoidal dose-response curve fit (variable slope). […]

p110 alpha = target: T2, p110 alpha (Homo sapiens, UniProt P42336); assay: PI3K isoform inhibition assay (fluorescence polarization), p110 alpha; assay type: biochemical; conditions: delta/alpha selectivity ratio
T2 construct: purchased Upstate Group, Millipore; Dundee, UK
Description: as §1, §2
The same protocol may be used to establish Ki values for p110α (alpha) PI3K binding.
The four Class I PI 3-kinases are cloned into baculovirus vectors as follows: […]

T2 sequence (P42336 whole entry, species assumed, canonical isoform): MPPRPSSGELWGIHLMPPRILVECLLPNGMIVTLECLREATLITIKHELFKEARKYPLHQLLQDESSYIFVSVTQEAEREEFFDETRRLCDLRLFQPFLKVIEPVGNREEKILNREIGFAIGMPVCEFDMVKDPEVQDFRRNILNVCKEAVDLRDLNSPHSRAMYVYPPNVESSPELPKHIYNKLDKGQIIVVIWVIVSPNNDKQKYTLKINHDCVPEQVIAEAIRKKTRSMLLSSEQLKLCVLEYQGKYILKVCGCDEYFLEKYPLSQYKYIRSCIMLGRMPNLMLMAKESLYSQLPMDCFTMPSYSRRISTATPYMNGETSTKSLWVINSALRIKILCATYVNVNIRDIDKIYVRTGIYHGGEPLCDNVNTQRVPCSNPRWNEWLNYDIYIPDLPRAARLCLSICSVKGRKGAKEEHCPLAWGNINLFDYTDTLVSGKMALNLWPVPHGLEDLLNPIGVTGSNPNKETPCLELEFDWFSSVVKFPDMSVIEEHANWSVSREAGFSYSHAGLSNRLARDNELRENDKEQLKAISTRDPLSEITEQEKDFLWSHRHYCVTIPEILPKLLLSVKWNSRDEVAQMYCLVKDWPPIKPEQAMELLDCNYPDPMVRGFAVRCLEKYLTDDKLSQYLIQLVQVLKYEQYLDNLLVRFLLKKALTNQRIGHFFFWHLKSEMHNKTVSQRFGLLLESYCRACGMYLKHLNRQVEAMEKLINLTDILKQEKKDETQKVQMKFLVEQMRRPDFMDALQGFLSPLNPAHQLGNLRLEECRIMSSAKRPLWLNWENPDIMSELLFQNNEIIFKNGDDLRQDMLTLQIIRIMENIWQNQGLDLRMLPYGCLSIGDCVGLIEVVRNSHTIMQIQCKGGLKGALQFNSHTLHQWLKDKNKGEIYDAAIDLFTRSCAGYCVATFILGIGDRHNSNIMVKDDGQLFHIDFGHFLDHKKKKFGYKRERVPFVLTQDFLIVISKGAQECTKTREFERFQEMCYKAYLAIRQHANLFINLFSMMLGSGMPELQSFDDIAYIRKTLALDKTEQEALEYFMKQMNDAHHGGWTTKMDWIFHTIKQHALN
T2 sequence (P27986 whole entry partner, species assumed, canonical isoform): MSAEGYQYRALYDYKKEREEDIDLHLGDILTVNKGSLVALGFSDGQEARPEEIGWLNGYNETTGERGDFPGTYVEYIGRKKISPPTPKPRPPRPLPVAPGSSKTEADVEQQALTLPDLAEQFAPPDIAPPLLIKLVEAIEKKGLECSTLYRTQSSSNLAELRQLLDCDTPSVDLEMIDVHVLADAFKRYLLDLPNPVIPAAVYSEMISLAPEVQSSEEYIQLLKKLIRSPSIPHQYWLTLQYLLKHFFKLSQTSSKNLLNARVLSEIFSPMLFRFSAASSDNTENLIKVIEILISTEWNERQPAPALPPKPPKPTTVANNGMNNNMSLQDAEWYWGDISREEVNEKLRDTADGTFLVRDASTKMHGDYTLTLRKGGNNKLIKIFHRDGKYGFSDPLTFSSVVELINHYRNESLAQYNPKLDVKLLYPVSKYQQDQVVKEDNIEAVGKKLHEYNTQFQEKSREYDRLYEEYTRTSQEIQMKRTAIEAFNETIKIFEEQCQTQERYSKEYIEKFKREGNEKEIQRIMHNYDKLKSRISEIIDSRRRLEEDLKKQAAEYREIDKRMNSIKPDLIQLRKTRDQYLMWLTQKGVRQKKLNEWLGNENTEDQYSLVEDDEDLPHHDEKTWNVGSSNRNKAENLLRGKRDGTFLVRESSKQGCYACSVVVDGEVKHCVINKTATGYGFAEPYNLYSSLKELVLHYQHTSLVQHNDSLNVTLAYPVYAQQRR
T1 sequence (O00329 whole entry, canonical isoform): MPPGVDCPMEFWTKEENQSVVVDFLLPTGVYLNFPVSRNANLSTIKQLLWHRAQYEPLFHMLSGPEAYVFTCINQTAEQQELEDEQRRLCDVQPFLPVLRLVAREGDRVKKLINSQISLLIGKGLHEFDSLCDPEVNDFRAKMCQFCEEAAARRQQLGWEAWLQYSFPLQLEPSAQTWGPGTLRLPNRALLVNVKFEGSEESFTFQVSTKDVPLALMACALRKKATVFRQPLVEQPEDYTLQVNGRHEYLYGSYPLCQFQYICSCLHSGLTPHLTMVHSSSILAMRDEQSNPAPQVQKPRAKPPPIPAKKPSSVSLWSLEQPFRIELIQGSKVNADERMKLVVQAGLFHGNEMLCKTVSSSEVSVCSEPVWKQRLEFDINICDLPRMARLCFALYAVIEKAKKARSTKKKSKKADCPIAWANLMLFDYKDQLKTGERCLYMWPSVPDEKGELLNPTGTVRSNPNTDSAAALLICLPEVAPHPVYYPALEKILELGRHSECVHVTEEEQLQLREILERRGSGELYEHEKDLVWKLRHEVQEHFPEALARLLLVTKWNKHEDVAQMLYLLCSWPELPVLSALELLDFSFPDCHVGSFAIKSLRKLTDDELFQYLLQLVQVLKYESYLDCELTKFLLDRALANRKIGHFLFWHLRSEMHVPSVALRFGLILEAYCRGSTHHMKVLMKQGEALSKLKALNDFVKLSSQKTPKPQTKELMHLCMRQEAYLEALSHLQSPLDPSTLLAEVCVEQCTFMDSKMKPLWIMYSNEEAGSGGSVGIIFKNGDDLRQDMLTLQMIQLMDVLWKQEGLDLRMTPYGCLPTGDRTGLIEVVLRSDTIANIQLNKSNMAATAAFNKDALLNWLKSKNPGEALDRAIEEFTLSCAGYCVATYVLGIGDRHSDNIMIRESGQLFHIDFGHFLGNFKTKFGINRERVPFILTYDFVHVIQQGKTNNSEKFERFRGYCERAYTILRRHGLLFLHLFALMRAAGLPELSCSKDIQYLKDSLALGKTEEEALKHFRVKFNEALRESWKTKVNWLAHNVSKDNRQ
T1 sequence (P27986 whole entry partner, canonical isoform): as the sequence (P27986 whole entry partner, species assumed, canonical isoform) above

Compound: CC(C)c1nc2ccccc2n1-c1nc(N2CCOCC2)c2nc(OC3CN(C4CCOCC4)C3)n(C)c2n1 [Compound 104, 4-(2-(2-isopropyl-1H-benzo[d]imidazol-1-yl)-9-methyl-8-(1-(tetrahydro-2H-pyran-4-yl)azetidin-3-yloxy)-9H-purin-6-yl)morpholine]
Ki (p110 delta): 0.651 nM | Ki p110 alpha/ Ki p110 delta (p110 alpha): 202

Compound: CCc1nc2ccccc2n1-c1nc(N2CCOCC2)c2nc(OC3CN(C4CC[S+]([O-])CC4)C3)n(C)c2n1 (single isomer, unassigned) [Compound 123, 4-(2-(2-ethyl-1H-benzo[d]imidazol-1-yl)-9-methyl-8-(1-(1-oxo-tetrahydro-2H-thiopyran-4-yl)azetidin-3-yloxy)-9H-purin-6-yl)morpholine]
Ki (p110 delta): 0.657 nM | Ki p110 alpha/ Ki p110 delta (p110 alpha): 178

Compound: CCc1nc2ccccc2n1-c1nc(N2CCOCC2)c2nc(OC3CN(S(=O)(=O)C4CC4)C3)n(C)c2n1 [Compound 118, 4-(8-(1-(cyclopropylsulfonyl)azetidin-3-yloxy)-2-(2-ethyl-1H-benzo[d]imidazol-1-yl)-9-methyl-9H-purin-6-yl)morpholine]
Ki (p110 delta): 0.539 nM | Ki p110 alpha/ Ki p110 delta (p110 alpha): 76

Compound: CCc1nc2ccccc2n1-c1nc(N2CCOCC2)c2nc(OC3CN(C(=O)[C@H](C)O)C3)n(C)c2n1 [Compound 129, (S)-1-(3-(2-(2-ethyl-1H-benzo[d]imidazol-1-yl)-9-methyl-6-morpholino-9H-purin-8-yloxy)azetidin-1-yl)-2-hydroxypropan-1-one]
Ki (p110 delta): 1.42 nM | Ki p110 alpha/ Ki p110 delta (p110 alpha): 87

Compound: CCc1nc2ccccc2n1-c1nc(N2CCOCC2)c2nc(OC3CCN(C(=O)C(C)C)CC3)n(C)c2n1 [Compound 108, 1-(4-(2-(2-ethyl-1H-benzo[d]imidazol-1-yl)-9-methyl-6-morpholino-9H-purin-8-yloxy)piperidin-1-yl)-2-methylpropan-1-one]
Ki (p110 delta): 0.494 nM | Ki p110 alpha/ Ki p110 delta (p110 alpha): 177

Compound: Cn1c(OC2CN(C3CCS(=O)(=O)CC3)C2)nc2c(N3CCOCC3)nc(-n3c(CCO)nc4ccccc43)nc21 [Compound 136, 2-(1-(9-methyl-6-morpholino-8-(1-(1,1-dioxo-tetrahydro-2H-thiopyran-4-yl)azetidin-3-yloxy)-9H-purin-2-yl)-1H-benzo[d]imidazol-2-yl)ethanol]
Ki (p110 delta): 4.94 nM | Ki p110 alpha/ Ki p110 delta (p110 alpha): 90

Compound: CCc1nc2ccccc2n1-c1nc(N2CCOCC2)c2nc(OC3CN(C(=O)C(C)(C)N)C3)n(C)c2n1 [Compound 121, 2-amino-1-(3-(2-(2-ethyl-1H-benzo[d]imidazol-1-yl)-9-methyl-6-morpholino-9H-purin-8-yloxy)azetidin-1-yl)-2-methylpropan-1-one]
Ki (p110 delta): 1.29 nM | Ki p110 alpha/ Ki p110 delta (p110 alpha): 51

Compound: CC(C)C(=O)N1CC(Oc2nc3c(N4CCOCC4)nc(-n4c(CCO)nc5ccccc54)nc3n2C)C1 [Compound 138, 1-(3-(2-(2-(2-hydroxyethyl)-1H-benzo[d]imidazol-1-yl)-9-methyl-6-morpholino-9H-purin-8-yloxy)azetidin-1-yl)-2-methylpropan-1-one]
Ki (p110 delta): 3.91 nM | Ki p110 alpha/ Ki p110 delta (p110 alpha): 68

Compound: CCc1nc2ccccc2n1-c1nc(N2CCOCC2)c2nc(OC3CCN(C4COC4)CC3)n(C)c2n1 [Compound 109, 4-(2-(2-ethyl-1H-benzo[d]imidazol-1-yl)-9-methyl-8-(1-(oxetan-3-yl)piperidin-4-yloxy)-9H-purin-6-yl)morpholine]
Ki (p110 delta): 1.15 nM | Ki p110 alpha/ Ki p110 delta (p110 alpha): 32.2

Compound: Cn1c(OC2CN(C3CCS(=O)(=O)CC3)C2)nc2c(N3CCOCC3)nc(-n3c(C(C)(F)F)nc4ccccc43)nc21 [Compound 139, 4-(2-(2-(1,1-difluoroethyl)-1H-benzo[d]imidazol-1-yl)-9-methyl-8-(1-(1,1-dioxo-tetrahydro-2H-thiopyran-4-yl)azetidin-3-yloxy)-9H-purin-6-yl)morpholine]
Ki (p110 delta): 1.42 nM | Ki p110 alpha/ Ki p110 delta (p110 alpha): 59

Compound: CCc1nc2ccccc2n1-c1nc(N2CCOCC2)c2nc(OC3CN(C4CCOCC4)C3)n(C)c2n1 [Compound 116, 4-(2-(2-ethyl-1H-benzo[d]imidazol-1-yl)-9-methyl-8-(1-(tetrahydro-2H-pyran-4-yl)azetidin-3-yloxy)-9H-purin-6-yl)morpholine]
Ki (p110 delta): 1.28 nM | Ki p110 alpha/ Ki p110 delta (p110 alpha): 118

Compound: CCc1nc2ccccc2n1-c1nc(N2CCOCC2)c2nc(OC3CCN(C4CCS(=O)(=O)CC4)CC3)n(C)c2n1 [Compound 106, 4-(2-(2-ethyl-1H-benzo[d]imidazol-1-yl)-9-methyl-8-(1,1-dioxo-1-(tetrahydro-2H-thiopyran-4-yl)piperidin-4-yloxy)-9H-purin-6-yl)morpholine]
Ki (p110 delta): 0.441 nM | Ki p110 alpha/ Ki p110 delta (p110 alpha): 73

Next, values leading:

Ki (p110 delta): 1.61 nM | Ki p110 alpha/ Ki p110 delta (p110 alpha): 96
Compound: CO[C@H](C)c1nc2ccccc2n1-c1nc(N2CCOCC2)c2nc(OC3CN(C4CCS(=O)(=O)CC4)C3)n(C)c2n1 [Compound 142, (R)-4-(2-(2-(1-methoxyethyl)-1H-benzo[d]imidazol-1-yl)-9-methyl-8-(1-(1,1-dioxo-tetrahydro-2H-thiopyran-4-yl)azetidin-3-yloxy)-9H-purin-6-yl)morpholine]

Ki (p110 delta): 1.59 nM | Ki p110 alpha/ Ki p110 delta (p110 alpha): 50
Compound: CO[C@@H](C)c1nc2ccccc2n1-c1nc(N2CCOCC2)c2nc(OC3CN(C4CCS(=O)(=O)CC4)C3)n(C)c2n1 [Compound 143, (S)-4-(2-(2-(1-methoxyethyl)-1H-benzo[d]imidazol-1-yl)-9-methyl-8-(1-(1,1-dioxo-tetrahydro-2H-thiopyran-4-yl)azetidin-3-yloxy)-9H-purin-6-yl)morpholine]

Ki (p110 delta): 4.46 nM | Ki p110 alpha/ Ki p110 delta (p110 alpha): 41
Compound: CCc1nc2ccccc2n1-c1nc(N2CCOCC2)c2nc(OC3CN(C(=O)C4(F)CC4)C3)n(C)c2n1 [Compound 146, (3-(2-(2-ethyl-1H-benzo[d]imidazol-1-yl)-9-methyl-6-morpholino-9H-purin-8-yloxy)azetidin-1-yl)(1-fluorocyclopropyl)methanone]

Ki (p110 delta): 0.46 nM | Ki p110 alpha/ Ki p110 delta (p110 alpha): 104
Compound: CCc1nc2ccccc2n1-c1nc(N2CCOCC2)c2nc(OC3CN(C(=O)C4C[C@@H]4F)C3)n(C)c2n1 (stereo partly drawn) [Compound 157, (3-(2-(2-ethyl-1H-benzo[d]imidazol-1-yl)-9-methyl-6-morpholino-9H-purin-8-yloxy)azetidin-1-yl)((2S)-2-fluorocyclopropyl)methanone]

Ki (p110 delta): 0.834 nM | Ki p110 alpha/ Ki p110 delta (p110 alpha): 54
Compound: CO[C@@H](C)c1nc2ccccc2n1-c1nc(N2CCOCC2)c2nc(OC3CN(C(=O)C(C)C)C3)n(C)c2n1 [Compound 141, (S)-1-(3-(2-(2-(1-methoxyethyl)-1H-benzo[d]imidazol-1-yl)-9-methyl-6-morpholino-9H-purin-8-yloxy)azetidin-1-yl)-2-methylpropan-1-one]

Ki (p110 delta): 0.826 nM | Ki p110 alpha/ Ki p110 delta (p110 alpha): 100
Compound: CCc1nc2ccccc2n1-c1nc(N2CCOCC2)c2nc(OC3CN(C(=O)C4(C)CC4)C3)n(C)c2n1 [Compound 145, (3-(2-(2-ethyl-1H-benzo [d]imidazol-1-yl)-9-methyl-6-morpholino-9H-purin-8-yloxy)azetidin-1-yl)(1-methylcyclopropyl)methanone]

Ki (p110 delta): 2.33 nM | Ki p110 alpha/ Ki p110 delta (p110 alpha): 72
Compound: CCc1nc2ccccc2n1-c1nc(N2CCOCC2)c2nc(OC3CN(C(=O)C(C)(C)F)C3)n(C)c2n1 [Compound 147, 1-(3-(2-(2-ethyl-1H-benzo[d]imidazol-1-yl)-9-methyl-6-morpholino-9H-purin-8-yloxy)azetidin-1-yl)-2-fluoro-2-methylpropan-1-one]
